Assay results reported in patent US20060183901A1, “Crystalline form of an indazole-carboxamide compound” (THERAVANCE, INC., priority 2005, published 2006).

Key:
Assay type in all cases: physicochemical
[1] = Differential scanning calorimetry (DSC)
Experimental: Differential scanning calorimetry (DSC) was performed using a TA Instruments
Model Q-100 module. Data were collected and analyzed using TA Instruments Thermal Advantage for Q Series™ software. A sample of about 1-2 mg was accurately weighed into an aluminum pan with lid. The sample was evaluated using a linear heating ramp of 5° C./min from ambient temperature to at least 225° C. The DSC cell was purged with dry nitrogen during use. Representative DSC traces for samples of the crystalline dihydrochloride and dihydrobromide salts of the invention are shown in FIGS. 2 and 4, respectively.
(§1) The crystalline acid salts of the compound of formula I of Comparative Examples 1-4 were analyzed by PXRD, DSC, and TGA. The temperatures at which endothermic heat flow was observed by DSC, and weight loss was observed by TGA, along with confirmation of crystallinity by PXRD are summarized in Table II where the stoichiometry is indicated by the number of molar equivalents of acid used to prepare the acid salt.

[2] = Thermogravimetric analysis (TGA)
Experimental: Thermogravimetric analysis (TGA) was performed using a TA Instruments Model Q-500 module. Data were collected and analyzed using TA Instruments Thermal Advantage for Q Series™ software. […] The balance and furnace chambers were purged with nitrogen during use. Representative TGA traces for samples of crystalline dihydrochloride and dihydrobromide salts of the invention are also shown in FIGS. 2 and 4, respectively.
as §1

[3] = Dynamic moisture sorption assessment; details: humidity range of 40% to 60% relative humidity
Experimental: Dynamic moisture sorption (DMS) assessment was performed at 25° C. using a VTI atmospheric microbalance, SGA-100 system (VTI Corp., Hialeah, Fla. 33016). A sample size of approximately 5-10 mg was used and the humidity was set at the ambient value at the start of the analysis. A typical DMS analysis consisted of three scans: ambient to 2% relative humidity (RH), 2% RH to 90% RH, 90% RH to 5% RH at a scan rate of 5% RH/step. The mass was measured every two minutes and the RH was changed to the next value (+5% RH) when the mass of the sample was stable to within 0.01% for 5 consecutive points. Representative DMS traces for samples of crystalline dihydrochloride and dihydrobromide salts of the invention are shown in FIGS. 5 and 6, respectively.

[4] = Solid state stability assessment (HPLC, Karl Fischer)
Experimental: Samples of the dihydrochloride salt of the invention, about 100 mg each, were stored in multiple 4 mL glass vials with Teflon lined lids at 25° C. and 60% relative humidity (RH) and at 40° C. and 75% RH in open and closed containers. At specific intervals, the contents of a representative vial was removed and analyzed by the Karl Fisher method for water content and by the following HPLC method: • Column: Agilent Zorbax Bonus RP, 4.6×250 mm, 5 μm (Agilent Part No. 880668-901); • Mobile Phase A: 88% water, 2% acetonitrile, 10% 100 mM potassium phosphate; • Mobile Phase B: 20% water, 70% acetonitrile; 10% 100 mM potassium phosphate; • Flow rate: 1.5 mL/min; • Injection Volume: 10 μL • Detector: 214 nm; • Gradient—Time in minutes (% Mobile Phase B): 0.0 (2); 1.0 (2); 9.0 (22); • 19.0 (28); 33.0 (63); 36.3 (100); 37.0 (2); and 42.0 (2).
Samples were prepared as 0.25 to 0.75 mg/mL solutions in 5% acetonitrile, 85% water, 10% 100 mM potassium phosphate for injection onto the HPLC.
The initial water content was 1.2%, as determined by Karl Fischer titration using a Brinkman Metrohm (Westbury, N.Y.) Karl Fischer Model 831 coulometer. After 6 months the water content of the samples stored in open containers at 25° C./60% RH and at 40° C./75% RH was 2.9% and 5.3%, respectively, an increase of 1.7% and 4.1%, respectively.

[5] = Storage stability of the crystalline hydrate at 40° C. and 75% RH
Experimental: A sample of the dihydrochloride salt of the invention, about 50 mg, was stored in a 20 mL glass vial at 40° C. and 75% relative humidity. At specific intervals, aliquots of sample were dispensed and analyzed by PXRD and by DSC and TGA. The low temperature (i.e. below 150° C.) features in the DSC and TGA traces are characteristic of a hydrate. The hydrate form is observed to be stable when stored at 40° C. and 75% RH.

[6] = 6 months, open containers, 25° C./60% RH
[7] = 6 months, open containers, 40° C./75% RH
[8] = six months at 25° C. and 60% relative humidity

CC(=O)O [acetate]
DSC endotherm (temperature of endothermic heat flow) [1]: ˜100 °C | TGA: temperature of weight loss [2]: ˜100 °C

Br.Br.CC(=O)N1CCN(CCN2[C@@H]3CC[C@H]2CC(NC(=O)c2nn(C(C)C)c4ccccc24)C3)CC1 (stereo partly drawn) [dihydrobromide salt, 1-isopropyl-1H-indazole-3-carboxylic Acid {(1S,3R,5R)-8-[2-(4-acetylpiperazin-1-yl)ethyl]-8-azabicyclo[3.2.1]oct-3-yl}amide dihydrobromide]
weight gain (hygroscopicity) [3]: less than 1% | DSC: temperature below which no (significant) thermal events [1]: about 230 °C | TGA: temperature below which no (significant) thermal event [2]: about 250 °C

CC(=O)N1CCN(CCN2[C@@H]3CC[C@H]2C[C@@H](NC(=O)c2nn(C(C)C)c4ccccc24)C3)CC1.Cl.Cl [dihydrochloride salt, 1-isopropyl-1H-indazole-3-carboxylic Acid {(1S,3R,5R)-8-[2-(4-acetylpiperazin-1-yl)ethyl]-8-azabicyclo[3.2.1]oct-3-yl}amide dihydrochloride]
weight gain (hygroscopicity) [3]: less than 1% | change in potency ([4]; 6 months of storage, all conditions (25° C./60% RH, 40° C./75% RH, open and closed)): no detectable change in potency | increase of water content [4, 6]: 1.7% | water content (Karl Fischer) [4, 6]: 2.9% | increase of water content [4, 7]: 4.1% | water content (Karl Fischer) [4, 7]: 5.3% | initial potency compared with the freebase (HPLC area percentage) ([4]; initial): 82.4% | water content (Karl Fischer) ([4]; initial): 1.2% | chemical degradation by HPLC [4, 8]: no chemical degradation | gain in moisture content [4, 8]: < 2% | DSC: temperature below which no (significant) thermal events [1]: about 200 °C | simultaneous melting and decomposition temperature (DSC and TGA) [1]: 180-200 °C | TGA: temperature below which no (significant) thermal event [2]: about 180 °C

CC(=O)N1CCN(CCN2[C@@H]3CC[C@H]2CC(NC(=O)c2nn(C(C)C)c4ccccc24)C3)CC1.O=C(O)/C=C/C(=O)O (stereo partly drawn) [fumarate, fumaric Acid Salt of 1-isopropyl-1H-indazole-3-carboxylic acid {(1S,3R,5R)-8-[2-(4-acetylpiperazin-1-yl)ethyl]-8-azabicyclo[3.2.1]oct-3-yl}amide]
DSC endotherm (temperature of endothermic heat flow) [1]: <150 °C | TGA: temperature of weight loss [2]: loss ˜100 °C | TGA: weight loss [2]: 5-6% wt.

CC(=O)N1CCN(CCN2[C@@H]3CC[C@H]2CC(NC(=O)c2nn(C(C)C)c4ccccc24)C3)CC1.Cl.Cl.O (stereo partly drawn) [hydrate, Crystalline hydrate of 1-isopropyl-1H-indazole-3-carboxylic Acid {(1S,3R,5R)-8-[2-(4-acetylpiperazin-1-yl)ethyl]-8-azabicyclo[3.2.1]oct-3-yl}amide dihydrochloride]
change in PXRD peak positions ([5]; 8 weeks vs 12 weeks at 40° C./75% RH): no significant change in PXRD peak positions | stability of hydrate form on storage ([5]; 40° C. and 75% RH): stable

O=[N+]([O-])O [nitrate]
DSC endotherm (temperature of endothermic heat flow) [1]: <100 °C | TGA: temperature of weight loss [2]: loss ˜150 °C | TGA: weight loss [2]: 5-6% wt.

CC(=O)N1CCN(CCN2[C@@H]3CC[C@H]2C[C@@H](NC(=O)c2nn(C(C)C)c4ccccc24)C3)CC1.O=P(O)(O)O [phosphate (1), Phosphoric Acid Salt of 1-isopropyl-1H-indazole-3-carboxylic Acid {(1S,3R,5R)-8-[2-(4-acetylpiperazin-1-yl)ethyl]-8-azabicyclo[3.2.1]oct-3-yl}amide]
TGA: temperature of weight loss [2]: loss <100 °C | TGA: weight loss [2]: 3-5% wt.

CC(=O)N1CCN(CCN2[C@@H]3CC[C@H]2CC(NC(=O)c2nn(C(C)C)c4ccccc24)C3)CC1.Cc1ccc(S(=O)(=O)O)cc1 (stereo partly drawn) [tosylate, p-toluene Sulfonic Acid Salt of 1-isopropyl-1H-indazole-3-carboxylic acid {(1S,3R,5R)-8-[2-(4-acetylpiperazin-1-yl)ethyl]-8-azabicyclo[3.2.1]oct-3-yl}amide]
DSC endotherm (temperature of endothermic heat flow) [1]: >200 °C

benzoate
DSC endotherm (temperature of endothermic heat flow) [1]: <150 °C | TGA: temperature of weight loss [2]: ˜100 °C
